Usually IC50 stands for the concentration that gives 50% inhibition. A high value points to weaker potency in that assay. A word on the T/C: it is the result in the treated group divided by that in the control group, in per cent. A word on the half-life: it is the time in which the quantity being followed falls by half. A higher half-life goes with slow decline.

Consider 10 molecules from ChEMBL document CHEMBL4376825, “Dual Inhibitors of Human DNA Topoisomerase II and Other Cancer-Related Targets” (J Med Chem, 2020).

Data set [1] is described as follows: Cytotoxicity against […] cells after 4 hrs by MTT assay. It is filed as functional, cell-based. A general note: Tetrazolium assays rely on reduction of a dye to a coloured formazan, in cell work by metabolically active cells.
Data set [2] in a line: Selectivity ratio of IC50 for […] cells to IC50 for human RPMI8226/S cells. In kind it is functional.
A short description of data set [3]: Cytotoxicity against human RPMI8226/S cells after 4 hrs by MTT assay. In kind it is functional, cell-based.
The test system of a further data set is P388. The experiment in a line: Antitumor activity against mouse P388 cells implanted in ip dosed B6D2F1 mouse assessed as T/C value administered for 4 days. In kind it is functional.
The nature of data set [4]: Half life in human. In kind it is ADME.
The subject of data set [5] is Proteasome. Kind of data set: Inhibition of proteasome in human K562 cells assessed as half life of etoposide-induced Topoisomerase 2alpha-DNA complexes at 50 uM incubated for 2 hrs followed by etoposide washout and measured up to 120 mins by TARDIS assay (reference value: 0.5 hrs). In kind it is subcellular.
In data set [6] the test system is Proteasome. Kind of data set: Inhibition of proteasome in human K562 cells assessed as half life of mitoxantrone-induced Topoisomerase 2alpha-DNA complexes by measuring half life of complex at 50 uM incubated for 2 hrs followed by mitoxantrone washout and measured up to […] by TARDIS assay (reference value: 10 hrs). It is filed as subcellular.
The test system of another data set is DLD-1. The experiment in a line: Antiproliferative activity against human DLD1 cells after 72 hrs by sulforhodamine B assay. In kind it is functional, cell-based. The note with it: DLD-1, 72 h.
Another data set concerns U-87 MG. The experiment in a line: Antiproliferative activity against human U87 cells after 72 hrs by sulforhodamine B assay. In kind it is functional, cell-based, U-87MG ATCC. (Sulforhodamine B stains cellular protein and so reports cell mass.)
A further data set deals with HeLa. Kind of data set: Antiproliferative activity against human HeLa cells after 72 hrs by sulforhodamine B assay. In kind it is functional, cell-based.
Another data set relates to Bel-7402. The experiment in a line: Antiproliferative activity against human Bel7402 cells after 72 hrs by sulforhodamine B assay. In kind it is functional, cell-based. The note with it: Bel-7402, 72 h.

Residues, ends and D or L forms follow the SMILES beside them. *: point of attachment. Cbz = O=C(OCc1ccccc1)*

Consider `N[C@@H]1CCN(c2c(F)cc3c(=O)c(C(=O)O)cn4c3c2Oc2c-4ccc3c2ccc2ccccc23)C1`, for which the IC50 amounted to 500 nM in data set [1] and 320 nM in data set [3]. The “Ratio IC50” value in [2] is reported as 1.6.
As to `Cc1cnc(NCCCN(C)C)c2c1[nH]c1ccc3cc(O)ccc3c12` [INTOPLICINE], in the data set on P388, the T/C was determined as 270%.
Consider `N[C@H]1CCN(c2c(F)cc3c(=O)c(C(=O)O)cn4c3c2Oc2c-4ccc3c2ccc2ccccc23)C1`, for which the IC50 came to 2800 nM in [1] and 690 nM in data set [3]. Further, the “Ratio IC50” value in data set [2] is 4.
`CC[C@@]1(O)C(=O)OCc2c1cc1n(c2=O)Cc2cc3ccccc3nc2-1` [CAMPTOTHECIN] displayed a half-life in data set [4] of 71 to 90 min.
In the case of `CC(C)C[C@@H](C=O)NC(=O)[C@H](CC(C)C)NC(=O)[C@H](CC(C)C)NC(=O)OCc1ccccc1` (Cbz-Leu-Leu-Leu-aldehyde), the T1/2 was greater than 2 h in the data set on Proteasome [5] and greater than 24 h in the data set on Proteasome [6].
Turning to `CCCCC(C#CC(=O)OC)O/C=C/C(=O)OC` (stereo not given), the 50% inhibitory concentration (IC50) in the data set with DLD-1 was found to be 850 nM; in the data set with U-87 MG, 4.9 µM.
`COc1ccc2c(ccc3c2c2c(NCCCN(C)C)ncc(C)c2n3C)c1`: the T/C with P388 was found to be 150%.
Take `COc1ccc(O)c(C(=O)c2cnc3[nH]c4ccccc4c3c2)c1`: the IC50 in the data set on HeLa is 60 nM; with Bel-7402, 830 nM.
On to `Cc1cnc(NCCCN(C)C)c2c1[nH]c1ccc3ccccc3c12`, for which the T/C in the data set with P388 was 150%.
In turn, `COc1cccc2c1C(=O)c1c(O)c3c(c(O)c1C2=O)C[C@@](O)(C(=O)CO)C[C@@H]3O[C@H]1C[C@H](N)[C@H](O)[C@H](C)O1` [DOXORUBICIN] registered a half-life in data set [4] of 4 min. In addition, the 50% inhibitory concentration (IC50) in data set [1] was determined as 320 nM; in [3], 37 nM. In data set [2], the “Ratio IC50” value worked out at 8.7.
